Data set [1] has as its target Mitogen-activated protein kinase 14 (Homo sapiens, UniProt Q16539). As to the kind of experiment: Inhibition of p38 MAP kinase alpha (unknown origin) after 1 hr by Z'-lyte assay.
In the next data set the test system is THP-1. Kind of data set: Inhibition of LPS-induced TNFalpha production in human THP1 cells. The data set is classed as functional, cell-based.
The test system of another data set is Blood. As to the kind of experiment: Inhibition of LPS-induced TNFalpha production in human whole blood. The data set is classed as functional, tissue-based.
Data set [2] deals with T1, MAP kinase p38 (Homo sapiens, UniProt O15264+Q15759+Q16539+P53778). As to the kind of experiment: Inhibition of p38 MAP kinase-mediated MAPKAPK2 phosphorylation in human U937 cells after 4 hrs by chemiluminescence assay. The data set is classed as cell-based. Particulars: u-937.
Data set [3] addresses T1, MAP kinase p38. As to the kind of experiment: Inhibition of p38 MAP kinase-mediated MAPKAPK2 phosphorylation in human Hut78 cells after 4 hrs by chemiluminescence assay. The data set is classed as cell-based.
For data set [4], the target named is T2, Liver carboxylesterase 1 (Homo sapiens, UniProt P23141).
T2 sequence (P23141 whole entry): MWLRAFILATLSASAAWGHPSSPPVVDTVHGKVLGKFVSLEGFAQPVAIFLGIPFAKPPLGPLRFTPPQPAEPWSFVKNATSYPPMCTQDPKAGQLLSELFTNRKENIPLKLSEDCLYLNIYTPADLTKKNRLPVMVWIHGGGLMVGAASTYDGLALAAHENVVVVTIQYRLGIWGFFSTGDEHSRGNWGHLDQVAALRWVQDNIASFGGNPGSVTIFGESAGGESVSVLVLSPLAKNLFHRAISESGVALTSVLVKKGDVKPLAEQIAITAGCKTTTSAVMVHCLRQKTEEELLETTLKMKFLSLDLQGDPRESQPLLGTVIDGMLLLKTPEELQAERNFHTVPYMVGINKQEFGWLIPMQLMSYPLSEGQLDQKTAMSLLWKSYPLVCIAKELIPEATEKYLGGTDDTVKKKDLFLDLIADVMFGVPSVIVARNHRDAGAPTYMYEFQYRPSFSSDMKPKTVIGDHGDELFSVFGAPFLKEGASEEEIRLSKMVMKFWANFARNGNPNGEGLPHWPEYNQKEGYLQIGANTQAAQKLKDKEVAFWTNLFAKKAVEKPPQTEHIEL
Kind of data set: Drug metabolism in human U937 cell lysate assessed as human CE1-mediated N-[2-(4-{6-Amino-5-[(2,4-difluorophenyl)carbonyl]-2-oxopyridin-1(2H)-yl}-3,5 difluorophenyl)ethyl]-L-leucine formation at 2.5 uM after 10 to 80 mins by LC/MS/MS analysis. The data set is classed as ADME, cell-based. The note with it: u-937, 2.5 µM.

The test system of data set [5] is HuT78. Kind of data set: Drug metabolism in human HUT78 cell lysate assessed as N-[2-(4-{6-Amino-5-[(2,4-difluorophenyl)carbonyl]-2-oxopyridin-1(2H)-yl}-3,5 difluorophenyl)ethyl]-L-leucine formation at 2.5 uM after 10 to 80 mins by LC/MS/MS analysis. The data set is classed as ADME, cell-based. The note with it: hut78, 2.5 µM.
For data set [6], the target named is T2, Liver carboxylesterase 1. Kind of data set: Drug metabolism in intact human U937 cells assessed as human CE1-mediated N-[2-(4-{6-Amino-5-[(2,4-difluorophenyl)carbonyl]-2-oxopyridin-1(2H)-yl}-3,5 difluorophenyl)ethyl]-L-leucine formation per million cells at 2.5 uM after 6 hrs by LC/MS/MS analysis. The data set is classed as ADME, cell-based. Particulars: u-937, 6 h.

The test system of data set [7] is HuT78. As to the kind of experiment: Drug metabolism in intact human HUT78 cells assessed as N-[2-(4-{6-Amino-5-[(2,4-difluorophenyl)carbonyl]-2-oxopyridin-1(2H)-yl}-3,5 difluorophenyl)ethyl]-L-leucine formation per million cells at 2.5 uM after 6 hrs by LC/MS/MS analysis. The data set is classed as ADME, cell-based. Particulars: hut78, 6 h.
The target of data set [8] is T2, Liver carboxylesterase 1. Kind of data set: Drug metabolism in human U937 cell lysate assessed as human CE1-mediated 5-(4-{6-Amino-5-[(2,4-difluorophenyl)carbonyl]-2-oxopyridiny1(2H)-yl}-3,5-difluorophenoxy)-L-norvaline formation at 2.5 uM after 10 to 80 mins by LC/MS/MS analysis. The data set is classed as ADME, cell-based. The note with it: u-937, 2.5 µM.
In data set [9] the test system is HuT78. As to the kind of experiment: Drug metabolism in human HUT78 cell lysate assessed as 5-(4-{6-Amino-5-[(2,4-difluorophenyl)carbonyl]-2-oxopyridiny1(2H)-yl}-3,5-difluorophenoxy)-L-norvaline formation at 2.5 uM after 10 to 80 mins by LC/MS/MS analysis. The data set is classed as ADME, cell-based. The note with it: hut78, 2.5 µM.
Data set [10] addresses T2, Liver carboxylesterase 1. As to the kind of experiment: Drug metabolism in intact human U937 cells assessed as human CE1-mediated 5-(4-{6-Amino-5-[(2,4-difluorophenyl)carbonyl]-2-oxopyridiny1(2H)-yl}-3,5-difluorophenoxy)-L-norvaline formation per million cells at 2.5 uM after 6 hrs by LC/MS/MS analysis. The note with it: u-937, 6 h. The data set is classed as ADME, cell-based.

Data set [11] concerns HuT78. Kind of data set: Drug metabolism in intact human HUT78 cells assessed as 5-(4-{6-Amino-5-[(2,4-difluorophenyl)carbonyl]-2-oxopyridiny1(2H)-yl}-3,5-difluorophenoxy)-L-norvaline formation per million cells at 2.5 uM after 6 hrs by LC/MS/MS analysis. The data set is classed as ADME, cell-based. Particulars: hut78, 6 h.

Structures are written as SMILES.

In ChEMBL document CHEMBL3217559, “Monocyte and macrophage selective anti-inflammatory kinase inhibitors” (Medchemcomm, 2012) one finds IC50 and Drug metabolism data, which are given here for five compounds.

Chain of Mitogen-activated protein kinase 14 (Q16539 whole entry): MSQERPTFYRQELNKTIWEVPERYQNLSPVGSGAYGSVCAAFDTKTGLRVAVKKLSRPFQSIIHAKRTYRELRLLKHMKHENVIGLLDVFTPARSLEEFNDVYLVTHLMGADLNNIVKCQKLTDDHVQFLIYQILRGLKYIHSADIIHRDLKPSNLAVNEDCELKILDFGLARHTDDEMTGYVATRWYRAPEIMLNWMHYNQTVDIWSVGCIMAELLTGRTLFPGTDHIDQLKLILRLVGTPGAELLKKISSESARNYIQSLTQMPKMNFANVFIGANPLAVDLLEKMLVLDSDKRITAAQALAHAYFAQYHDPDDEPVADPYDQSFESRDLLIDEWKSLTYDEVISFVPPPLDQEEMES

In general, IC50 refers to the concentration needed to halve the response being measured. The low end stands for greater potency, the high end for weaker potency. Consider `Nc1c(C(=O)c2ccc(F)cc2F)ccc(=O)n1-c1c(F)cccc1F`, for which the IC50 in data set [1] amounted to 1.86 nM; with THP-1, 1.5 nM; in the data set with Blood, 182 nM; on MAP kinase p38 [2], 10 nM; against MAP kinase p38 [3] it was 10 nM.
Turning to `CC(C)C[C@H](NCCc1cc(F)c(-n2c(N)c(C(=O)c3ccc(F)cc3F)ccc2=O)c(F)c1)C(=O)OC1CCCC1`, the Drug metabolism was 3036 pg/mL/min at Liver carboxylesterase 1 [4], below 20 pg/mL/min in the data set with HuT78 [5], 606 ng on Liver carboxylesterase 1 [6] and 0.5 ng with HuT78 [7]. Besides, the IC50 in data set [1] stood at 273 nM; with THP-1 it was 0.74 nM; in the data set on Blood, 57.5 nM; on MAP kinase p38 [2] it was 0.65 nM; against MAP kinase p38 [3] it was 73 nM.
As for `Nc1c(C(=O)c2ccc(F)cc2F)ccc(=O)n1-c1c(F)cc(OCCC[C@H](N)C(=O)OC2CCCC2)cc1F`, the IC50 was 6.5 nM in [1]; 1.4 nM in the data set with THP-1; 28.8 nM in the data set on Blood; 1 nM against MAP kinase p38 [2]; 1 nM against MAP kinase p38 [3]. Further, the Drug metabolism amounted to 10613 pg/mL/min at Liver carboxylesterase 1 [8], 14326 pg/mL/min in the data set with HuT78 [9], 1407 ng on Liver carboxylesterase 1 [10] and 727 ng with HuT78 [11].
`CC(C)C[C@H](NCCc1cc(F)c(-n2c(N)c(C(=O)c3ccc(F)cc3F)ccc2=O)c(F)c1)C(=O)O` displayed an IC50 in data set [1] of 1.2 nM. In other words, the single-digit nanomolar range.
For the compound `Nc1c(C(=O)c2ccc(F)cc2F)ccc(=O)n1-c1c(F)cc(OCCC[C@H](N)C(=O)O)cc1F`, the IC50 in [1] was found to be 1 nM.
